According to US8906928B2, “Substituted pyrazolo-pyrrolo-pyridine-dione compounds” (ArQule, Inc., priority 2009, dated 2014):

What was measured:
[1] = test system: DLD-1; experiment: MTS assay (cell growth inhibition), DLD-1; format: cell-based; conditions: DLD-1 cells, 72 hours incubation with test compound; concentration not given
Procedure, shortened: (§1)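 First, seed 3000 cells per well in low-serum (1% FBS) DMEM and culture 18 h. Next, add compounds prepared at 300× in DMSO and diluted 1:40 in DMEM; incubate 72 h. Finally, add MTS/PMS for 4 h and measure absorbance at 492 nm.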

[2] = test system: Kato III; experiment: MTS assay (cell growth inhibition), Kato III; format: cell-based; conditions: Kato III cells, 72 hours incubation with test compound; concentration not given
Procedure, shortened: as §1

[3] = test system: MDA-MB; experiment: MTS assay (cell growth inhibition), MDA-MB; format: cell-based; conditions: MDA-MB cells, 72 hours incubation with test compound; concentration not given
Procedure, shortened: as §1

[4] = test system: NCI-H1299; experiment: MTS assay (cell growth inhibition), NCI-H1299; format: cell-based; conditions: NCI-H1299 cells, 72 hours incubation with test compound; concentration not given
Procedure, shortened: as §1

[5] = test system: PACA-2; experiment: MTS assay (cell growth inhibition), PACA-2; format: cell-based; conditions: PACA-2 cells, 72 hours incubation with test compound; concentration not given
Procedure, shortened: as §1

[6] = test system: PC-3; experiment: MTS assay (cell growth inhibition), PC-3; format: cell-based; conditions: PC-3 cells, 72 hours incubation with test compound; concentration not given
Procedure, shortened: as §1

SMILES	melting point	MTS CELL KILL DATA (% INHIBITION) DLD-1 [1]	MTS CELL KILL DATA (% INHIBITION) Kato III [2]	MTS CELL KILL DATA (% INHIBITION) MDA-MB [3]	MTS CELL KILL DATA (% INHIBITION) NCI-H1299 [4]	MTS CELL KILL DATA (% INHIBITION) PACA-2 [5]	MTS CELL KILL DATA (% INHIBITION) PC-3 [6]
O=C1c2cnc3[nH]ncc3c2C(=O)N1Cc1ccccc1-c1ccc(F)cc1F [Example 145, 7-[(2′,4′-difluorobiphenyl-2-yl)methyl]pyrazolo[3,4-b]pyrrolo[3,4-d]pyridine-6,8(3H,7H)-dione]	199 to 200 °C	–	–	–	–	–	–
O=C1c2cnc3[nH]ncc3c2C(=O)N1CCC1CCNCC1 [Example 70, 7-(2-piperidin-4-ylethyl)pyrazolo[3,4-b]pyrrolo[3,4-d]pyridine-6,8(3H,7H)-dione]	> 300 °C	–	–	–	–	–	–
COc1ccc(OC)c(-c2ccccc2CN2C(=O)c3cnc4[nH]ncc4c3C2=O)c1 [Example 143, 7-[(2′,5′-dimethoxybiphenyl-2-yl)methyl]pyrazolo[3,4-b]pyrrolo[3,4-d]pyridine-6,8(3H,7H)-done]	208 to 211 °C	C (C = <50% INHIBITION)	C (C = <50% INHIBITION)	A (A = 80-100% INHIBITION)	C (C = <50% INHIBITION)	C (C = <50% INHIBITION)	A (A = 80-100% INHIBITION)
O=C1c2cnc3[nH]nc(-c4ccccc4)c3c2C(=O)N1Cc1c(F)cccc1Cl [Example 169, 7-(2-chloro-6-fluorobenzyl)-1-phenylpyrazolo[3,4-b]pyrrolo[3,4-d]pyridine-6,8(3H,7H)-dione]	224 to 228 °C	–	–	–	–	–	–
O=C1c2cnc3[nH]ncc3c2C(=O)N1CCc1ccccc1 [Example 2, 7-(2-phenylethyl)pyrazolo[3,4-b]pyrrolo[3,4-d]pyridine-6,8(3H,7H)-dione]	237 to 239 °C	A (A = 80-100% INHIBITION)	A (A = 80-100% INHIBITION)	A (A = 80-100% INHIBITION)	A (A = 80-100% INHIBITION)	A (A = 80-100% INHIBITION)	A (A = 80-100% INHIBITION)
N#Cc1ccc(CN2C(=O)c3cnc4[nH]ncc4c3C2=O)cc1 [Example 41, 4-[(6,8-dioxo-6,8-dihydropyrazolo[3,4-b]pyrrolo[3,4-d]pyridin-7(3H)-yl)methyl]benzonitrile]	293 to 295 °C	–	–	–	–	–	–
O=C1NC(=O)c2c1cnc1[nH]ncc21 [Example 1, pyrazolo[3,4-b]pyrrolo[3,4-d]pyridine-6,8(3H,7H)-dione]	285 to 300 °C	–	–	–	–	–	–
CC(c1ccccc1-c1ccccc1)N1C(=O)c2cnc3[nH]ncc3c2C1=O (stereo not drawn) [Example 144, 7-(1-biphenyl-2-ylethyl)pyrazolo[3,4-b]pyrrolo[3,4-d]pyridine-6,8(3H,7H)-dione]	161 to 163 °C	–	–	–	–	–	–
O=C1c2cnc3[nH]ncc3c2C(=O)N1Cc1ccccc1-c1cccc(F)c1F [Example 141, 7-[(2′,3′-difluorobiphenyl-2-yl)methyl]pyrazolo[3,4-b]pyrrolo[3,4-d]pyridine-6,8(3H,7H)-dione]	93 to 100 °C	–	–	–	–	–	–
CC(C)(C)OC(=O)N1CCC(CN2C(=O)c3cnc4[nH]ncc4c3C2=O)CC1 [Example 140, tert-butyl 4-[(6,8-dioxo-6,8-dihydropyrazolo[3,4-b]pyrrolo[3,4-d]pyridin-7(3H)-yl)methyl]piperidine-1-carboxylate]	134 to 137 °C	C (C = <50% INHIBITION)	C (C = <50% INHIBITION)	A (A = 80-100% INHIBITION)	C (C = <50% INHIBITION)	A (A = 80-100% INHIBITION)	A (A = 80-100% INHIBITION)
N#Cc1cccc(CN2C(=O)c3cnc4[nH]nc(Br)c4c3C2=O)c1 [Example 142, 3-[(1-bromo-6,8-dioxo-6,8-dihydropyrazolo[3,4-b]pyrrolo[3,4-d]pyridin-7(3H)-yl)methyl]benzonitrile]	283 to 285 °C	C (C = <50% INHIBITION)	C (C = <50% INHIBITION)	B (B = 50-79% INHIBITION)	C (C = <50% INHIBITION)	C (C = <50% INHIBITION)	A (A = 80-100% INHIBITION)
N#Cc1ccccc1CN1C(=O)c2cnc3[nH]ncc3c2C1=O [Example 108, 2-[(6,8-dioxo-6,8-dihydropyrazolo[3,4-b]pyrrolo[3,4-d]pyridin-7(3H)-yl)methyl]benzonitrile]	285 to 287 °C	–	–	–	–	–	–
COc1cccc(-c2ccccc2CN2C(=O)c3cnc4[nH]ncc4c3C2=O)c1 [Example 147, 7-[(3′-methoxybiphenyl-2-yl)methyl]pyrazolo[3,4-b]pyrrolo[3,4-d]pyridine-6,8(3H,7H)-dione]	99 to 100 °C	–	–	–	–	–	–
Cc1ccc(-c2ccccc2CN2C(=O)c3cnc4[nH]ncc4c3C2=O)cc1F [Example 146, 7-[(3′-fluoro-4′-methylbiphenyl-2-yl)methyl]pyrazolo[3,4-b]pyrrolo[3,4-d]pyridine-6,8(3H,7H)-dione]	193 to 198 °C	C (C = <50% INHIBITION)	C (C = <50% INHIBITION)	C (C = <50% INHIBITION)	C (C = <50% INHIBITION)	C (C = <50% INHIBITION)	C (C = <50% INHIBITION)
O=C1c2cnc3[nH]ncc3c2C(=O)N1CC1CCNCC1 [Example 57, 7-(piperidin-4-ylmethyl)pyrazolo[3,4-b]pyrrolo[3,4-d]pyridine-6,8(3H,7H)-dione]	> 300 °C	–	–	–	–	–	–
